From patent US5561228A, “Macrocyclic immunomodulators” (Abbott Laboratories, priority 1994, dated 1996)

System: human mixed lymphocyte reaction (MLR)
Experiment: human mixed lymphocyte reaction (MLR) assay
Type: cell-based
Settings: immunosuppressant activity, Table 1
Description: The immunosuppressant activity of the compounds of the present invention was determined using the human mixed lymphocyte reaction (MLR) assay described by Kino, T. et al. in Transplantation Proceedings, XIX(5):36-39,Suppl. 6 (1987).

IC50 [nM]	Compound
< 1000	CC[C@@H]1/C=C(\C)C[C@H](C)C[C@H](OC)[C@H]2O[C@@](O)(C(=O)C(=O)N3CCCC[C@H]3C(=O)O[C@H](/C(C)=C/[C@@H](CC=NN(C)C)CCC#N)[C@H](C)[C@@H](O)CC1=O)[C@H](C)C[C@@H]2OC [Example 417]
< 1000	CC[C@@H]1/C=C(\C)C[C@H](C)C[C@H](OC)[C@H]2O[C@@](O)(C(=O)C(=O)N3CCCC[C@H]3C(=O)O[C@H](/C(C)=C/[C@@H](CC=NO)CCC#N)[C@H](C)[C@@H](O)CC1=O)[C@H](C)C[C@@H]2OC [Example 419]
< 1000	CC[C@@H]1/C=C(\C)C[C@H](C)C[C@H](OC)[C@H]2O[C@@](O)(C(=O)C(=O)N3CCCC[C@H]3C(=O)O[C@H](/C(C)=C/[C@@H](CC=NOCC(=O)O)CCC#N)[C@H](C)[C@@H](O)CC1=O)[C@H](C)C[C@@H]2OC [Example 421]
< 1000	CC[C@@H]1/C=C(\C)C[C@H](C)C[C@H](OC)[C@H]2O[C@@](O)(C(=O)C(=O)N3CCCC[C@H]3C(=O)O[C@H](/C(C)=C/[C@@H](CCO)CCC#N)[C@H](C)[C@@H](O)CC1=O)[C@H](C)C[C@@H]2OC [Example 425]
